# Reference: US20070093469A1, “Substituted azetidine compounds as cyclooxygenase-1-cyclooxygenase-2 inhibitors, and their preparation and use as medicaments” (LABORATORIOS DEL DR. ESTEVE S.A, priority 2004, published 2007)
# What was measured:
# Cox-2 enzyme = molecular target: T1, Cox-2 enzyme (Ovis aries, UniProt P79208); test: Cox-1/Cox-2 enzyme assay (Cox-2); format: biochemical; conditions: for IC50: enzyme assay
# T1 construct: purchased Cayman Chemical 60120
# T1 sequence (P79208 17-603): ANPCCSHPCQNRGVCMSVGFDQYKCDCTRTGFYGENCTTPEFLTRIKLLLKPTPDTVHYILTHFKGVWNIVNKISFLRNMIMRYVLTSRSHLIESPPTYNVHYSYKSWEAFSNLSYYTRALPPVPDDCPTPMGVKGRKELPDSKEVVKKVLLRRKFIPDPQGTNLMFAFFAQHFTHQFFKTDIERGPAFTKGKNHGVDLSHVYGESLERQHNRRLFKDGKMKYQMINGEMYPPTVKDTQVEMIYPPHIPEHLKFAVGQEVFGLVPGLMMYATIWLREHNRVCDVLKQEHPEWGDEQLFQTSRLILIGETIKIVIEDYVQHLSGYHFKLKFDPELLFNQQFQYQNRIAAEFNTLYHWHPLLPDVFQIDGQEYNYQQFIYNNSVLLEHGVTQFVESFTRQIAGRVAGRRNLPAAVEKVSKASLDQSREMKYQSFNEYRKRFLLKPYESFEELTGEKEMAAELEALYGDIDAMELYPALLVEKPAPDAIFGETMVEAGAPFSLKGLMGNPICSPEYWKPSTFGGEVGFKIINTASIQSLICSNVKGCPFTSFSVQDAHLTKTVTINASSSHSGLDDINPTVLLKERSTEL
# Protocol: (§1) I. Cox-1/Cox-2 Enzyme Assay:
# (§2) The Cox-1/Cox-2 enzyme assay for the inventive azetidine compounds is carried out according to the following description:
# (§3) Immediately after the addition of the substrate, the slope corresponding to the optical density increase at 480 nm is recorded for 1 minute. The reaction is monitored with a Hewlett-Packard 8452A spectrophotometer.
# Cox-1 enzyme = molecular target: T2, Cox-1 enzyme (Ovis aries, UniProt P05979); test: Cox-1/Cox-2 enzyme assay (Cox-1); format: biochemical; conditions: for inhibition at 50 µM: read-out: % inhibition 5 × 10^−5 M COX-1; for IC50: enzyme assay
# T2 construct: purchased Cayman Chemical 60100
# T2 sequence (P05979 25-600): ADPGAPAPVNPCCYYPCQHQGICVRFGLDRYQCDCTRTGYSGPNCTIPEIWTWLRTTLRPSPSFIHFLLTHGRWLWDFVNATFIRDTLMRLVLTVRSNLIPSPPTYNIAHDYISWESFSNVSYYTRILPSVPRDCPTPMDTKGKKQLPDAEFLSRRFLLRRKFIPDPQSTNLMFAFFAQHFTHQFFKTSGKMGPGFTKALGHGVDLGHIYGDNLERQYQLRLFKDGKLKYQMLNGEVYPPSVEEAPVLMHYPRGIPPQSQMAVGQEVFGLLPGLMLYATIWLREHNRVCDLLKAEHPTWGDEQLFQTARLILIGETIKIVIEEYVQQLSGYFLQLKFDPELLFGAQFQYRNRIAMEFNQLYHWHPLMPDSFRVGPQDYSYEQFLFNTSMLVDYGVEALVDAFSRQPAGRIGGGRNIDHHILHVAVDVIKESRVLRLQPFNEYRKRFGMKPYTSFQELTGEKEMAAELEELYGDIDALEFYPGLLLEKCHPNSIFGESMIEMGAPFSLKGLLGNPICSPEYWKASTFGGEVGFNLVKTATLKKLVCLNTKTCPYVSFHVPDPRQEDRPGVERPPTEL
# Protocol: as §1, §2, §3
# Cox-1 = molecular target: T3, Cox-1 (Homo sapiens, UniProt P23219); test: Cox-1 activity in human whole blood (TXB2); format: cell-based; conditions: read-out: hWB inhibition COX-1 IC50
# T3 construct: from tissue; host or cells: fresh human whole blood
# T3 sequence (P23219 24-599): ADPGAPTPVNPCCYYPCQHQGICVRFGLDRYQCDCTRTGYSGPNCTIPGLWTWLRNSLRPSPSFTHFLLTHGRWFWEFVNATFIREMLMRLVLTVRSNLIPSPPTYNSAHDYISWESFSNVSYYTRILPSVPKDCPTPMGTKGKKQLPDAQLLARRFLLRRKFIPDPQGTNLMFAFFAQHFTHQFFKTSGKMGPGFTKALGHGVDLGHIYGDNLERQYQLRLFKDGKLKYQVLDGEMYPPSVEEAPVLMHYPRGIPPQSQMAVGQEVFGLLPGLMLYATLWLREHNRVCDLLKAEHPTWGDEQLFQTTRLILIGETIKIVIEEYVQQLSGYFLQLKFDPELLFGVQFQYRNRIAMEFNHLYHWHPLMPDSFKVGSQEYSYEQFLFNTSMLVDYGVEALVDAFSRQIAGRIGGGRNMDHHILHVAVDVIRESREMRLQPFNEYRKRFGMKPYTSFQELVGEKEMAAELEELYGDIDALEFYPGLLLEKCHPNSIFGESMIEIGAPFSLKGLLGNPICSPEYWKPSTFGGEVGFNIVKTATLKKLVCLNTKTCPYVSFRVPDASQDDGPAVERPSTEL
# Protocol: (§4) II. Determination of Cox-1- and Cox-2-Activity in Human Whole Blood
# (§5) The Cox-1- and Cox-2-activity in human whole blood is determined according to a modification of the method described in the publication of C. Brideau et al., “A human whole blood assay for clinical evaluation of biochemical efficacy of cyclooxygenase inhibitors”, Inflamm Res 1996; 45: 68-74. The respective part of the description is hereby incorporated by reference and forms part of the present disclosure.
# For Cox-1 activity determination, fresh human blood is distributed in a volume of 0.5 ml to silicone Eppendorf tubes, into which 2 μl of the compound to be tested or dimethylsulfoxide (DMSO) at a final concentration of 0.4% (volume/volume). The tubes are inverted for homogenization and incubated for 1 hour at 37° C. under slight stirring. Afterwards they are centrifuged for 15 min at 10500 g and 100 μl of serum is collected. Proteins are precipitated by the addition of 400 μl of methanol to each tube, tubes were centrifuged for 10 minutes at 5000 g and 300 μl of supernatant is aspirated and then dried under nitrogen atmosphere.
# Tromboxane B2 (TXB2) concentration is quantified using an assay kit (Caymann Chemical, Ann Arbor, Mich., U.S.A., Catalogue number 519031) after reconstitution into 300 μl assay buffer supplied in the assay kit.
# rats = test: Test for antiarthritic activity in rats (adjuvant); format: in vivo; conditions: Rattus norvegicus, daily oral route from day 15, read on day 25
# Protocol: V: Test for Antiarthritic Activity in Rats
# The test for antiarthritic activity is carried out as described in the publication of Anderson et al., J. Clin. Invest. 97, 11, 2672-2679, (1996). The respective part of the description is hereby incorporated by reference and forms part of the present disclosure.
# On day 0 of the experiment, the volumes of the contralateral paws to those injected, i.e. left hind paws, are measured by means of a pletismometer, the readings of which are expressed in ml.
# Next, each rat is injected the adjuvant, consisting of 1 mg of Mycobacterium butyricum suspended in 0.1 ml of mineral oil, via subplantar route in the right hind paw.
# Approximately every day, and for 15 days after the injection of adjuvant, the volumes of non-injected hind paws (contralateral) are measured again. […]
# On day 15 of the experiment, daily administration of the compounds to be tested via oral route is started, and on each day, the volumes of non-injected hind paws is recorded.
# On Day 25 of the experiment, the body weights and non-injected hind paws (contralateral) volumes are measured for the last time, and these values were used to determine the activities.
# Cox-2 = molecular target: T4, Cox-2 (Homo sapiens, UniProt P35354); test: Cox-2 activity in human whole blood (LPS, PGE2); format: cell-based; conditions: read-out: hWB inhibition COX-2 IC50
# T4 construct: 0.5 ml of fresh human blood; from tissue; host or cells: fresh human whole blood stimulated with E. coli 0111:B4 LPS
# T4 sequence (P35354 18-604): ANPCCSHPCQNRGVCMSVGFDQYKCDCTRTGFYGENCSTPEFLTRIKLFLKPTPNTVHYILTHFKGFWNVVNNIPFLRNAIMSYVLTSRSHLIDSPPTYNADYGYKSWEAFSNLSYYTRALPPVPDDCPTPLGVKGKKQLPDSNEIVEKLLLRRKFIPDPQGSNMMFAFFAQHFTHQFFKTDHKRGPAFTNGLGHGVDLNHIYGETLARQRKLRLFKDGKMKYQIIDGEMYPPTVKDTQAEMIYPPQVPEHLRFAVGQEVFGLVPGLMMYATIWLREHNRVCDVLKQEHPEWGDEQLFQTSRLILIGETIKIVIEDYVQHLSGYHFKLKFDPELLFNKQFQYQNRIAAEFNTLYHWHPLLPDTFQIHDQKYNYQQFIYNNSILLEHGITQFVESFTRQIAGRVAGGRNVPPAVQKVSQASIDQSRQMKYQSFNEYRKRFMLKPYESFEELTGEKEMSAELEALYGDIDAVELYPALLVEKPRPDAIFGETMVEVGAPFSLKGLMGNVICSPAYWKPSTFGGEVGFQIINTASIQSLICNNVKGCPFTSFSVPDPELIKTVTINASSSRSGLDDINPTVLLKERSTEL
# Protocol: as §4, §5
# For Cox-2 activity determination, tubes are prepared with 2 μl of the compound to be tested or DMSO, 12 μg/ml of aspirine, 9 μl of 1% (weight/volume) sodium heparine and 0.5 ml of fresh human blood. Samples are pre-incubated at 37° C. during 15 minutes and E. coli 0111:B4 LPS (from Sigma Chemical, St. Louis, Mo. U.S.A., catalogue number L-3012) are added for incubation during 24 h at 37° C. The samples are centrifuged for 100 μl of plasma collection. 400 μl of Ethyl acetate and 1% (volume/volume) methanol are added to each sample and the tubes are stirred and centrifuged for 10 minutes at 5000 g at 4° C. 300μl of supernatant are aspirated and evaporated under nitrogen atmosphere. Prostaglandin E2 concentration is quantified using an assay kit from Cayman Chemical, Ann-Arbor, Mich., U.S.A. (Catalogue number: 514010 ) after reconstitution into 300 μl assay buffer supplied in the assay kit.
Structure (SMILES),IC50 (Cox-2 enzyme) [nM],melting point [°C],inhibition at 50 µM (Cox-1 enzyme) [%],inhibition at 50 µM (Cox-2 enzyme; read-out: % inhibition 5 × 10^−5 M COX-2) [%],IC50 (Cox-1) [nM],IC50 (Cox-1 enzyme) [nM],ED50 (rats) [mg/kg],IC50 (Cox-2) [nM]
"CC(C)(C)c1cc(C(=O)N2CC(Br)C2)cc(C(C)(C)C)c1O [Example 7, (3-Bromo-azetidin-1-yl)-(3,5-di-tert-butyl-4-hydroxy-phenyl)-methanone]",200,160 to 163,35,–,–,–,–,–
"CC(C)(C)c1cc(CC(=O)N2CC(O)C2)cc(C(C)(C)C)c1O [Example 18, 2-(3,5-di-tert-butyl-4-hydroxy-phenyl)-1-(3-hydroxy-azetidin-1-yl)-ethanone]",–,154 to 156,4,1,–,–,–,–
"CC(C)(C)c1cc(C(=O)N2CC(O)C2)cc(C(C)(C)C)c1O [Example 1, (3,5-di-tert-butyl-4-hydroxy-phenyl)-(3-hydroxy-azetidin-1-yl)-methanone]",1510,185 to 189,–,–,100,37700,0.5,200
"CC1(O)CN(C(=O)c2cc(C(C)(C)C)c(O)c(C(C)(C)C)c2)C1 [Example 3, (3,5-di-tert-butyl-4-hydroxy-phenyl)-(3-hydroxy-3-methyl-azetidin-1-yl)-methanone]",3510,148 to 153,–,–,100,349000,0.34,100
